These results are taken from US9969696B2, “Compounds as inhibitor of DNA double-strand break repair, methods and applications thereof” (INDIAN INSTITUTE OF SCIENCE, priority 2012, dated 2018).

One experiment has as its target T1, Ligase IV/XRCC4 complex (Homo sapiens, UniProt P49917).
T1 construct: made in house
Put plainly: DSB joining catalysed by purified Ligase IV/XRCC4 complex. The note with it: equimolar concentration of protein. It is filed as biochemical. Here is the method:
A. Western blotting showing presence of Ligase IV/XRCC4 in eluted fractions. W is wash, 1 and 2 are different fractions. […] Concentrations of inhibitors used are indicated. For other details, FIG. 4 legend can be referred. C. […] Radiolabeled oligomeric DNA substrates containing 5′ compatible termini are then added to the reaction along with increasing concentrations of purified Ligase IV/XRCC4 complex (30, 60 and 120 fmol) and products are resolved on a PAGE. F. Bar diagram representing quantification of the complementation experiment performed on 5′-5′ and 5′-3′ noncomplementary ends. In all panels quantification of EJ based on 3 independent experiments is represented as mean±SEM.

In the next experiment the target is T2, Ligase IV (Homo sapiens, UniProt P49917).
T2 construct: made in house
T2 sequence (P49917 1-911): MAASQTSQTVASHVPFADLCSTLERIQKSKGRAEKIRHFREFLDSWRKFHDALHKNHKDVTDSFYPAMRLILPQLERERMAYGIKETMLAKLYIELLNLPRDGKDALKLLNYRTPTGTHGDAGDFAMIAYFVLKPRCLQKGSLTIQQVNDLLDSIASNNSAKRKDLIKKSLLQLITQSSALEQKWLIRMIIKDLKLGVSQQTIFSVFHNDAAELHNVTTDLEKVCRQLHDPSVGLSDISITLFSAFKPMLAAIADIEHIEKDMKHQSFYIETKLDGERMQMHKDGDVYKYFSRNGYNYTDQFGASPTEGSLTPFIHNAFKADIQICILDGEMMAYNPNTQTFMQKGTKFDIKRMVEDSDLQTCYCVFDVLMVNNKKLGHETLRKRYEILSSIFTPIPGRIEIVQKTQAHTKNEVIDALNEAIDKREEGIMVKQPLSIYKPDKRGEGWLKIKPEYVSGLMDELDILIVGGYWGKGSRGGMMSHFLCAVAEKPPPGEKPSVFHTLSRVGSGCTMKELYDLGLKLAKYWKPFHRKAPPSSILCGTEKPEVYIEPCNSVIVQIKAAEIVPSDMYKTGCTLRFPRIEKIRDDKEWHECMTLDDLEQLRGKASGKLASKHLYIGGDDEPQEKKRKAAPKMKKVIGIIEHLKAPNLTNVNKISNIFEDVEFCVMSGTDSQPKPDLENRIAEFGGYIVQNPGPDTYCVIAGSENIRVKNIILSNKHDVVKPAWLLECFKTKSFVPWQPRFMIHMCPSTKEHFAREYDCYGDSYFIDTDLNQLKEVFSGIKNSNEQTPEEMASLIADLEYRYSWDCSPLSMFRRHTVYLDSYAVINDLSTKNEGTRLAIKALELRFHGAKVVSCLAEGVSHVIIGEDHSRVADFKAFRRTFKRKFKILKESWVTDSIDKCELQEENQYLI
Put plainly: CD spectroscopy, Ligase IV. It is filed as binding. The following applies: 200-260 nm. On the procedure:
(§1) A. Western blot analysis of KU70 and KU80 proteins in purified fractions. W is wash, 1, 2 and 3 are different fractions. B. Binding of KU proteins to DNA breaks. [−γ^32P]ATP end-labeled oligomeric DNA substrate containing DSB is incubated for about 30 min on ice with purified KU or Ligase IV/XRCC4 complex. For Ligase IV/XRCC4 supershift, first KU and DNA are incubated followed by addition of Ligase IV/XRCC4 (about 60 fmol). Reaction mixture is resolved on 1-6% native gradient PAGE. C. […] After preincubation of KU with DNA substrates, Ligase IV/XRCC4 complex (about 60 fmol) and increasing concentrations of inhibitor (10, 50, 100, 200, 500 and 700µM) are added, incubated and products are resolved on a gradient native PAGE. D-1 and D-2. […] CD spectra are obtained at a wavelength of 200-260 nm for […]

The target of experiment [1] is T3, DNA binding domain (DBD) of Ligase IV (Homo sapiens, UniProt P49917).
T3 construct: Ligase IV or DBD of Ligase IV alone is overexpressed, purified; made in house
T3 sequence (P49917 1-251 limits assumed): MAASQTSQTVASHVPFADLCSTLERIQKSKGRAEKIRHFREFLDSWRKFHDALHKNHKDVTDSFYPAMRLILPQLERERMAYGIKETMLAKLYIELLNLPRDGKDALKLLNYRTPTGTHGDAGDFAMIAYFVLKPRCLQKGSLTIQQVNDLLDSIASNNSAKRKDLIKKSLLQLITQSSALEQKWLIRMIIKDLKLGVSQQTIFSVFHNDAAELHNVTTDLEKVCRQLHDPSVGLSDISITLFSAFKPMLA
Put plainly: CD spectroscopy, DBD of Ligase IV. The note with it: 200-260 nm. On the procedure:
as §1

Another experiment concerns MCF7. Put plainly: MTT assay, MCF7. It is filed as cell-based, human.
In the next experiment the test system is HeLa. Description: MTT assay, HeLa. It is filed as cell-based, human. For orientation: Tetrazolium assays rely on reduction of a dye to a coloured formazan, in cell work by metabolically active cells.
A further experiment concerns A2780. Description: MTT assay, A2780. It is filed as cell-based. The following applies: Homo sapiens.
Another experiment concerns HT1080. Put plainly: MTT assay, HT1080. It is filed as cell-based. The following applies: Homo sapiens, HT-1080.
The test system of a further experiment is K562. Description: MTT assay, K562. It is filed as cell-based. The following applies: Homo sapiens.
The next experiment has as its system Dalton's lymphoma. Description: Dalton's lymphoma (DLA) mouse model. It is filed as in vivo, mice. From the text:
Data shown is from three independent batches of experiments containing 8 animals each. […] B-1 and B-2. […] Data shown is from two independent batches of experiments containing 10 animals each. […] C.
Data shown is from two independent batches of experiments containing 5 animals each. […] C. […] DMSO treated cells are used as vehicle control. γH2AX foci formation is detected as described in FIG. 10. […] Data shown are from three independent experiments and in each case foci from a minimum of about 50 cells are counted. In panels A, B, C, D, E, significance levels are indicated (ns: not significant, *p<0.05, **p<0.01, ***p<0.001).

In another experiment the test system is MCF7 cells. Description: Western blotting for apoptotic and DNA repair markers, MCF7. It is filed as cell-based, human. The note with it: MCF7, 20 and 40 μM, about 24 h. From the text: PARP1 plays a major role in DNA damage induced apoptosis and is the main target of caspases.
Antibodies against Ki67 (cell proliferation), ATM, pATM, p53BP1, p21 (DNA repair), BID and Caspase 3 (apoptosis) are used. […] Green color indicates methyl green stained nuclei while brown indicates DNA breaks stained with diaminebenzidine, which is an indication of apoptosis. C. […] GAPDH is used as loading control.
In general terms: In western blotting, separated proteins are transferred to a membrane and probed.

T1 sequence (Q13426 whole entry partner, one chain of several): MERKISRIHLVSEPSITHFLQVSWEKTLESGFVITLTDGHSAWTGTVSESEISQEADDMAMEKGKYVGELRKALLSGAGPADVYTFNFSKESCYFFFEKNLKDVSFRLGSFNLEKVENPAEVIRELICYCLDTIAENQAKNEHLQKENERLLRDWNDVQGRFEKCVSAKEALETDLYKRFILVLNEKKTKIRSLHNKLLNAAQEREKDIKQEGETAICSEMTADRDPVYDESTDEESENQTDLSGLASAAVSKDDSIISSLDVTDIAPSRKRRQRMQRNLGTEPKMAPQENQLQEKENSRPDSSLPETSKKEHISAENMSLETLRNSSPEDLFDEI

Broadly, the IC50 is the point on the concentration scale where inhibition reaches its midpoint. Low readings indicate higher potency, high ones lower potency. In the case of `Oc1nc(S)nc(/N=C/c2ccccc2)c1/N=C/c1ccccc1` [Compound 1, (5E,6E)-5,6-bis(benzylideneamino)-2-mercaptopyrimidin-4-ol], the “Joining by purified Ligase IV” value at Ligase IV/XRCC4 complex is given as “blocks joining”. Also, the “CD spectrum of Ligase IV upon addition of compound” value at Ligase IV is reported as “clear shift in the spectrum”. The “CD spectrum of DBD upon addition of compound” value in experiment [1] was “clear shift in the spectrum”. The “Effect on cell proliferation (MTT)” value with MCF7 is “dose-dependent effect on cell proliferation”. Moreover, the “Effect on cell proliferation (MTT)” value with HeLa is given as “dose-dependent effect on cell proliferation”. This molecule also yielded an IC50 with A2780 of approximately 15 µM. The half-maximal inhibitory concentration (IC50) in the experiment on HT1080 is approximately 60 µM. In the experiment on K562, this molecule registered a concentration for half-maximal inhibition (IC50) of more than 100 µM. Moreover, in the experiment on Dalton's lymphoma (20 mg/kg + etoposide 10 mg/kg intraperitoneally), the “Tumor growth, together with etoposide” value was “substantial reduction in tumor growth”. Further, the “Tumor growth, in conjunction with radiation” value in the experiment on Dalton's lymphoma (about 20 mg/kg intraperitoneally + irradiation 2 Gy, 2 doses, 7 and 14 days) is given as “significant decrease in tumor growth”. For the same molecule, the Lifespan result in the experiment on Dalton's lymphoma (about 20 mg/kg, 6 doses, Compound 1 alone) is recorded as “nor increase in lifespan”. Besides, in the experiment with MCF7 cells, the “Expression of BCL2” value was “decreases”; the “Levels of BAD” value is reported as “remain unchanged”; the MDM2 entry is “concomitant decrease in MDM2”; the “PARP1 and Caspase 3 cleavage” value is on record as “dose-dependent increase”. In addition, in the experiment with MCF7 cells, the “Phosphorylation of ATM” value is “increase in phosphorylation”; the “Precursor Caspase 9” value is listed as “Activation of precursor Caspase 9”; the “Proapoptotic proteins PUMA and BAX” value was “activation of proapoptotic proteins”; the “Shorter fragment of MCL1” value was “upregulated in a dose-dependent manner”. The p53 entry in the experiment with MCF7 cells was “Activation of p53”.
